In patent US8383637B2, “2-amino-quinazoline derivatives useful as inhibitors of β-secretase (BACE)” (Jansssen Pharmaceutica N.V., priority 2004, dated 2013):
“And” between values parts separate entries of the source, which are not always exact repeats. Equal entries are not always repeated. Where two headings read alike, the source gives them in different places.

Key:
β-secretase(BACE) [1] = biological target: T1, β-secretase(BACE) (Homo sapiens, UniProt P56817); test: BACE Assay-2 (FS1 substrate, IC50 and Ki); format: biochemical; settings: procedure of Example 159, FS1 substrate; read-out: Ki μM (159)
T1 construct: purchased Panvera
Method: The FS1-substrate stock solution was prepared in DMSO as a 10 mg/mL solution. The FS1-substrate working solution was prepared by diluting the 10 mg/mL stock solution with substrate assay buffer to a final concentration of 300 μg/mL. The β-secretase (BACE) working solution was prepared by diluting a 0.83 mg/mL BACE stock solution with enzyme assay buffer to a final concentration of 4 μg/mL.
Test compounds were dissolved in DMSO at 10 mM.
The procedure for this assay was as follows: 15 μL of BACE working solution was pipetted into each well of a 96-well plate. To each well was then pipetted 2 μL of test compound at the selected concentration. Test compound and BACE were then mixed with a pipettor and incubated for 20 min at room temperature. To each well was then added 10 μL of the FS1 substrate working solution.
The procedure for the positive control was as follows: 15 μL of BACE working solution was pipetted into each well to be used as a positive control. To each well was then pipetted 2 μL of vehicle. Vehicle and BACE were then mixed with a pipettor and incubated for 20 min at room temperature. To each well was then added 10 μL of the FS1 substrate working solution.
For test compounds, measured at multiple concentrations, the measured T0 and T60 values were used to calculate an IC50 value using Graphpad Software (or PIR). For test compounds, Ki inhibition was determined as follows: For each compound concentration and positive control, rate of cleavage of substrate (Vi, where i=compound concentration in μM) was determined as Δ Fluorescence/Δ time (min). Cleavage rates (Vi) were plotted as a function of inhibitor concentration in μM [I]. The Ki was then determined by fitting the following equation to the graph of [I] vs Vi Y=aVmax/(50+24*(1+X/Ki)),

β-secretase(BACE) [2] = biological target: T1, β-secretase(BACE); test: BACE FS1% Inhibition Assay; format: biochemical; settings: FS1 substrate; for inhibition at 10 µM: 10 μM test compound, read-out: % Inhibition (FS) 10 μM
How it was run: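 Percent inhibition at each tested concentration, referenced to enzyme-free blank and vehicle-only positive control. Reaction: compound and BACE (4 μg/mL working stock) mixed 20 min at room temperature before FS1 substrate (300 μg/mL working stock), then 1 h at room temperature.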

[3] = 0.3 μM test compound, read-out: % Inhibition (FS) 0.3 μM
[4] = 1 μM test compound, read-out: % Inhibition (FS) 1 μM
[5] = 3 μM test compound, read-out: % Inhibition (FS) 3 μM
[6] = 0.3 μM test compound, read-out: % Inhibition (FS)
[7] = 1 μM test compound, read-out: % Inhibition (FS)
[8] = 3 μM test compound, read-out: % Inhibition (FS)

T1 sequence (P56817 46-501): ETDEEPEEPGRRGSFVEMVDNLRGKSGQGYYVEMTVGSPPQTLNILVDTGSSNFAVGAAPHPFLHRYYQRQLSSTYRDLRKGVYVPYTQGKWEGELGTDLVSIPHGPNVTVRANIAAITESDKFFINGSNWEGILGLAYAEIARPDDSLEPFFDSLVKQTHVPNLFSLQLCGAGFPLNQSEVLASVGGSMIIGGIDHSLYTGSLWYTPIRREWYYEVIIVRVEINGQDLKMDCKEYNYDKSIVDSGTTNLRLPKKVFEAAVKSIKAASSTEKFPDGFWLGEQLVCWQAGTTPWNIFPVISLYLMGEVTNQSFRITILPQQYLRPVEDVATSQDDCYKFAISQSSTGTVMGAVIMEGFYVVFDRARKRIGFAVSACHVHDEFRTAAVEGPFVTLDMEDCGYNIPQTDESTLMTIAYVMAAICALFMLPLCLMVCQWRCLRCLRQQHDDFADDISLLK

SMILES	Ki (β-secretase(BACE) [1])	inhibition at 0.3 µM (β-secretase(BACE) [2]; [3]) [%]	inhibition at 1 µM (β-secretase(BACE) [2]; [4]) [%]	inhibition at 3 µM (β-secretase(BACE) [2]; [5]) [%]	further results
Cc1ccccc1Oc1ccc2c(c1)CN(Cc1cccc(C(=O)N(C)C3CCCCC3)c1)C(N)=N2 [Compound 293]	1.1 µM	< 30	44	81	
Cc1ccccc1Sc1ccc2c(c1)CN(Cc1cccc(C(=O)N(C)C3CCCCC3)c1)C(N)=N2 [Compound 404]	0.78 µM	< 30	32	67	
NC1=Nc2ccc(Oc3ccccc3)cc2CN1[C@@H](CCC(=O)N(CCOCc1ccccc1)[C@H]1CC[C@@H](C(=O)O)CC1)C1CCOCC1 [Compound 751, (S)-enantiomer of 4-[[4-(2-Amino-6-phenoxy-4H-quinazolin-3-yl)-4-(tetrahydro-pyran-4-yl)-butyryl]-(2-benzyloxy-ethyl)-amino]-cyclohexanecarboxylic acid]	0.025 µM				inhibition at 0.3 µM (β-secretase(BACE) [2]; [6]): 112%; inhibition at 1 µM (β-secretase(BACE) [2]; [7]): 112%; inhibition at 3 µM (β-secretase(BACE) [2]; [8]): 116%
CN(C(=O)c1cccc(CN2Cc3cc(-c4cccnc4)ccc3N=C2N)c1)C1CCCCC1 [Compound 170]	0.77 µM	< 30	49	67	
CN(C(=O)CCCC(c1ccccc1)N1Cc2cc(Oc3ccccc3)ccc2N=C1N)C1CCCCC1 (centres unmarked) [Compound 152]	0.3 µM			85	inhibition at 10 µM (β-secretase(BACE) [2]): 107%
NC1=Nc2ccc(Oc3ccccc3)cc2CN1[C@@H](CCC(=O)N(CCO)[C@H]1CC[C@@H](C(=O)O)CC1)C1CCOCC1 [Compound 750, (S)-Enantiomer of 4-cis-[[4-(2-Amino-6-phenoxy-4H-quinazolin-3-yl)-4-(tetrahydro-pyran-4-yl)-butyryl]-(2-hydroxy-ethyl)-amino]-cyclohexanecarboxylic acid]	0.005 µM				inhibition at 0.3 µM (β-secretase(BACE) [2]; [6]): 115%; inhibition at 1 µM (β-secretase(BACE) [2]; [7]): 114%; inhibition at 3 µM (β-secretase(BACE) [2]; [8]): 116%
COc1cccc(OC)c1-c1ccc2c(c1)CN(Cc1cccc(C(=O)N(C)C3CCCCC3)c1)C(N)=N2 [Compound 264]	0.78 µM	26	63	92	
COC(=O)[C@H]1CC[C@@H](N(C)C(=O)CC[C@@H](C2CCCCC2)N2Cc3cc(Oc4ccccc4)ccc3N=C2N)CC1 [Compound 761]	0.175 µM				inhibition at 0.3 µM (β-secretase(BACE) [2]; [6]): 51%; inhibition at 1 µM (β-secretase(BACE) [2]; [7]): 91%; inhibition at 3 µM (β-secretase(BACE) [2]; [8]): 112%
CC(C)CCC(=O)NCCN1Cc2cc(-c3ccccc3Cl)ccc2N=C1N [Compound 654]	0.046 µM	83	102	111	
CN(C(=O)CCN1Cc2cc(Oc3ccccc3)ccc2N=C1N)C1C2CC3CC(C2)CC1C3 (centres unmarked) [Compound 618]	0.19 µM	< 30	70	104	
CN(C(=O)CC[C@@H](C1CCCCC1)N1Cc2cc(Oc3ccccc3)ccc2N=C1N)C1CCC(C(=O)O)CC1 (stereo partly drawn) [Compound 714, 4-{[4-(2-Amino-6-phenoxy-4H-quinazolin-3-yl)-4-(S)-cyclohexyl-butyryl]-methyl-amino}-cyclohexanecarboxylic acid]	0.029 µM and 0.022 µM				% Inhibition (FS) (β-secretase(BACE) [2]; 0.3 μM test compound, 0.3 µM): 98%; inhibition at 0.3 µM (β-secretase(BACE) [2]; [6]): 100%; % Inhibition (FS) (β-secretase(BACE) [2]; 1 μM test compound, 1 µM): 129%; inhibition at 1 µM (β-secretase(BACE) [2]; [7]): 126%; % Inhibition (FS) (β-secretase(BACE) [2]; 3 μM test compound): 138%; inhibition at 3 µM (β-secretase(BACE) [2]; [8]): 138%
COc1cccc(F)c1-c1ccc2c(c1)CN(CCNC(=O)C1CCCCC1)C(N)=N2 [Compound 545]	0.14 µM	55	77	118	
CN(C(=O)c1cccc(C(C2CCCCC2)N2Cc3cc(Oc4ccccc4)ccc3N=C2N)c1)C1CCCCC1 (centres unmarked) [Compound 534]	0.18 µM	54	103	126	
NC1=Nc2ccc(Oc3ccccc3)cc2CN1[C@@H](CCC(=O)N(CCO)C1CCCCC1)C1CCCCC1 [Compound 736, (S)-enantiomer of 4-(2-Amino-6-phenoxy-4H-quinazolin-3-yl)-4,N-dicyclohexyl-N-(2-hydroxy-ethyl)-butyramide]	0.013 µM				inhibition at 0.3 µM (β-secretase(BACE) [2]; [6]): 125%; inhibition at 1 µM (β-secretase(BACE) [2]; [7]): 134%; inhibition at 3 µM (β-secretase(BACE) [2]; [8]): 135%
NC1=Nc2ccc(-c3ccccc3F)cc2CN1CCNC(=O)C1CCCCC1 [Compound 535]	0.076 µM	57	86	116	
CC(C)N(C(=O)c1cccc(CN2Cc3cc(Oc4ccccc4)ccc3N=C2N)c1)C1CCCCC1 [Compound 192]	0.22 µM	38	92	110	
CN(C(=O)c1cccc(C(c2ccccc2)N2Cc3cc(Oc4ccccc4)ccc3N=C2N)c1)C1CCCCC1 (centres unmarked) [Compound 136]	0.5 µM			85	inhibition at 10 µM (β-secretase(BACE) [2]): 133%
CN(C(=O)CCC(C1CCC(O)CC1)N1Cc2cc(Oc3ccccc3)ccc2N=C1N)C1CCCCC1 (centres unmarked) [Compound 632, 4-(2-Amino-6-phenoxy-4H-quinazolin-3-yl)-N-cyclohexyl-4-(4-hydroxy-cyclohexyl)-N-methyl-butyramide]	0.0084 µM	115	118	117	
CN(C(=O)CC[C@@H](C1CCOCC1)N1Cc2cc(Oc3ccccc3)ccc2N=C1N)[C@H]1CC[C@H](C(=O)O)CC1 [Compound 746]	0.035 µM				inhibition at 0.3 µM (β-secretase(BACE) [2]; [6]): 85%; inhibition at 1 µM (β-secretase(BACE) [2]; [7]): 104%; inhibition at 3 µM (β-secretase(BACE) [2]; [8]): 112%
CN(C(=O)c1cccc(CN2Cc3cc(-c4csc5ccccc45)ccc3N=C2N)c1)C1CCCCC1 [Compound 265]	1.1 µM	< 30	55	92	
CN(CCCN1Cc2cc(Oc3ccccc3)ccc2N=C1N)C1CCCCC1 [Compound 428, 3-[3-(Cyclohexyl-methyl-amino)-propyl]-6-phenoxy-3,4-dihydro-quinazolin-2-ylamine]	0.23 µM	< 30	60	98	
COc1ccccc1-c1ccc2c(c1)CN(CCC(=O)NC1C3CC4CC(C3)CC1C4)C(N)=N2 (centres unmarked) [Compound 556]	0.044 µM	103	118	126	
COc1ccc(C)cc1Oc1ccc2c(c1)CN(Cc1cccc(C(=O)N(C)C3CCCCC3)c1)C(N)=N2 [Compound 467]					% Inhibition (FS) 0.3 μM (β-secretase(BACE) [2]; 0.3 μM test compound): <30%; % Inhibition (FS) 1 μM (β-secretase(BACE) [2]; 1 μM test compound): <30%; % Inhibition (FS) 3 μM (β-secretase(BACE) [2]; 3 μM test compound): <30%
CCCC(=O)NCCN1Cc2cc(-c3ccc4ccccc4c3)ccc2N=C1N [Compound 666]					% Inhibition (FS) (β-secretase(BACE) [2]; 0.3 μM test compound): 37%; % Inhibition (FS) (β-secretase(BACE) [2]; 1 μM test compound): <30%; % Inhibition (FS) (β-secretase(BACE) [2]; 3 μM test compound): <30%
CC1CCC(C(=O)NCCN2Cc3cc(Oc4ccccc4)ccc3N=C2N)CC1 (centres unmarked) [Compound 191]					% Inhibition (FS) 0.3 μM (β-secretase(BACE) [2]; 0.3 μM test compound): <30%; % Inhibition (FS) 1 μM (β-secretase(BACE) [2]; 1 μM test compound): 46%; % Inhibition (FS) 3 μM (β-secretase(BACE) [2]; 3 μM test compound): 88%
CC(C)[C@@H](CNC(=O)C12CC3CC(CC(C3)C1)C2)N1Cc2cc(Oc3ccccc3)ccc2N=C1N [Compound 553]					% Inhibition (FS) 0.3 μM (β-secretase(BACE) [2]; 0.3 μM test compound): <30%; % Inhibition (FS) 1 μM (β-secretase(BACE) [2]; 1 μM test compound): <30%; % Inhibition (FS) 3 μM (β-secretase(BACE) [2]; 3 μM test compound): 49%
NC1=Nc2ccc(-c3ccc4ccccc4c3)cc2CN1CCNC(=O)CCC(F)(F)F [Compound 686]					% Inhibition (FS) (β-secretase(BACE) [2]; 0.3 μM test compound): <30%; % Inhibition (FS) (β-secretase(BACE) [2]; 1 μM test compound): 73%; % Inhibition (FS) (β-secretase(BACE) [2]; 3 μM test compound): 80%
